Article PMC10709440, “High-throughput ligand profile characterization in novel cell lines expressing seven heterologous insect olfactory receptors for the detection of volatile plant biomarkers” (Scientific Reports, 2023)

Legend:
Experiment in all cases: cell-based
Design in all cases: GCaMP6 calcium fluorescence in stable HEK293 OR+ORCO lines; peak dF normalised to 50 uM VUAA1 (=1)
Drosophila OR47a = molecular target: T1, Drosophila OR47a (Drosophila melanogaster, UniProt P81921); conditions: relative to 50 uM VUAA1 response, below 0.05 set to 0; for activity at 100 µM / activity at 1 µM / activity at 10 µM: HEK293, read-out: % activation; for % activation: 10 µM, agonist, 10 / OR47a
T1 construct: expressed in transfected cells
T1 sequence (P81921 1-385): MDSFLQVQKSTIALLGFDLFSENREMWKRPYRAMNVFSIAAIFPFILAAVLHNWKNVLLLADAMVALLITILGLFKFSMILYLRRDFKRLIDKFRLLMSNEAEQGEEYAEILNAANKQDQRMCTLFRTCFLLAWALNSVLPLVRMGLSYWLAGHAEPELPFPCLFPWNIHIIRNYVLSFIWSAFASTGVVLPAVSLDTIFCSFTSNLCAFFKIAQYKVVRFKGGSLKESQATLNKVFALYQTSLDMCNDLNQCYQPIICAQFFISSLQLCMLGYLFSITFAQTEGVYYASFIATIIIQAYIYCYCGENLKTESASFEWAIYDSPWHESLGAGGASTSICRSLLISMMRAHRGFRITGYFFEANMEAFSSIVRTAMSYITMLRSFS
T1 sequence (Q9VNB5 1-486 partner): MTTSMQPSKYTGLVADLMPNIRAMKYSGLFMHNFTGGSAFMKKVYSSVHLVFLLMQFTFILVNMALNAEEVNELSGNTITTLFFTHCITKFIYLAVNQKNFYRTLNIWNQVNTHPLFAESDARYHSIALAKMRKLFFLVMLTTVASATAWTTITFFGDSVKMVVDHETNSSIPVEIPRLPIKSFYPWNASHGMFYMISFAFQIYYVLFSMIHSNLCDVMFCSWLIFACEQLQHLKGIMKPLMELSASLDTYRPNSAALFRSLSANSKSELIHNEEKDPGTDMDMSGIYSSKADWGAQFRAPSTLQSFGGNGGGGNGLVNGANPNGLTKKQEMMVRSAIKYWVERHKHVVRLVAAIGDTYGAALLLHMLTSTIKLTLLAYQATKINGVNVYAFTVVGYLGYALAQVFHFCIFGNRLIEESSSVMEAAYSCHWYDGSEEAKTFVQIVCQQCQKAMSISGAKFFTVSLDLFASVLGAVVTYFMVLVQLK
Description: (§1) Twelve thousand to 18,000 cells were plated into each well of a black wall, transparent bottom 384-well microplate (Greiner) 48 h or 72 h before the measurements and were simultaneously treated with 1 μg/mL doxycycline. […] The plate has 24 columns, thus we could record responses in up to eight different cell lines in each plate. On the day of the experiment, the growth medium was replaced with 20 µL assay buffer/well (140 mM NaCl, 5 mM KCl, 2 mM CaCl2, 1 mM MgCl2, 5 mM HEPES-Na, 20 mM glucose, pH 7.3, 340 mOsm). […] Baseline fluorescence (F0) was recorded for 5 s, after which 7 µL VOC buffer (140 mM NaCl, 5 mM KCl, 2 mM CaCl2, 1 mM MgCl2, 5 mM HEPES-Na, 31 mM glucose, 0.1% DMSO, pH 7.3, 340 mOsm) was injected into each well in one row and the fluorescence response was recorded for an additional 30 s, at a rate of one read/sec. VOC solutions (VOC buffer with 4× concentration of the final measured VOC concentration, 9 µL/well was injected) were measured on the same wells in a second round with the same protocol. Each individual concentration of a specific VOC sample was recorded in three wells for the same cell line on the same microplate. The raw data were exported in xls file format, F0 and FMAX values, and the fluorescence intensity changes (∆F) were calculated in Excel (Microsoft) (Supplementary file Data summary.xlsx) using the following equation: ΔF=FMAX-F0/F0 (see also Fig. 1C). On each plate, we recorded the response of each cell line to 50 µM VUAA1. The average of these ∆F values of each cell line were used to calculate the VUAA1-normalized values for the rest of the plate, by dividing VOC response ∆F values by the average VUAA1 response ∆F value of the corresponding OR cell line. Each VOC-OR combination was measured three times as tec The recorded FMAX, F0, ∆F, VUAA1-normalized ∆F values, as well as the OR name, the name of the tested sample, and the final concentration for each well were copied into supplementary file Data summary.xlsx, that was used to summarize all the plates recorded. Here, the averages of the measurements were calculated for each receptor-VOC-concentration combination. […] Each VOC was measured at 1, 10, and 100 µM final concentration on each receptor. VUAA1-normalized response was calculated as described in methods.

Drosophila OR71a = molecular target: T2, Drosophila OR71a (Drosophila melanogaster, UniProt Q9VUK5); conditions: HEK293; relative to 50 uM VUAA1 response; below 0.05 set to 0; read-out: % activation
T2 construct: expressed in transfected cells
T2 sequence (Q9VUK5 1-378): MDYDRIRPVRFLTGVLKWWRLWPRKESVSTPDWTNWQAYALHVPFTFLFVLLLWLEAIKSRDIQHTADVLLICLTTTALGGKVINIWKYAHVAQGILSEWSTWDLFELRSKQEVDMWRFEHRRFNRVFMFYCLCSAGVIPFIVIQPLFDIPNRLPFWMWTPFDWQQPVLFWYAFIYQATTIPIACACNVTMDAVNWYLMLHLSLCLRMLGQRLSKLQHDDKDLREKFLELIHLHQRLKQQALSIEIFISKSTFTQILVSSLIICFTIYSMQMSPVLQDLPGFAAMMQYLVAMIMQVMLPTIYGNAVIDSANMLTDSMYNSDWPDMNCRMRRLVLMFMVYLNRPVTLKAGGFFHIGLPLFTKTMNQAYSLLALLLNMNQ
T2 sequence (Q9VNB5 1-486 partner): T1 sequence (Q9VNB5 1-486 partner)
Description: as §1

Drosophila OR13a = molecular target: T3, Drosophila OR13a (Drosophila melanogaster, UniProt Q9VXL0); conditions: HEK293; relative to 50 uM VUAA1 response; below 0.05 set to 0; read-out: % activation
T3 construct: expressed in transfected cells
T3 sequence (Q9VXL0 1-418): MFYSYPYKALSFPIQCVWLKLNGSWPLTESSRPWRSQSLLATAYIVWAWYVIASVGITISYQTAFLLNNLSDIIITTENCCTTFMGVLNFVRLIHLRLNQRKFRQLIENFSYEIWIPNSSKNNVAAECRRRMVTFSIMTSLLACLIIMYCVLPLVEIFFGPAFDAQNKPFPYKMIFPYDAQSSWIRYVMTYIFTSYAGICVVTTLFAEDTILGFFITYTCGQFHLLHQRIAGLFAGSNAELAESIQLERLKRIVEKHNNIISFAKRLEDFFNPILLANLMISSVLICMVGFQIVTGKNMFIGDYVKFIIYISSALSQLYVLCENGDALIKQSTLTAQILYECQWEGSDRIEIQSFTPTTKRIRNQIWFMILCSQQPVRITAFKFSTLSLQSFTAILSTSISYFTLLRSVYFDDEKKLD
T3 sequence (Q9VNB5 1-486 partner): T1 sequence (Q9VNB5 1-486 partner)
Description: as §1

Structure (SMILES) | activity at 100 µM (Drosophila OR47a) | activity at 1 µM (Drosophila OR71a) | activity at 10 µM (Drosophila OR71a) | activity at 100 µM (Drosophila OR71a) | activity at 1 µM (Drosophila OR47a) | activity at 10 µM (Drosophila OR47a) | activity at 1 µM (Drosophila OR13a) | activity at 10 µM (Drosophila OR13a) | activity at 100 µM (Drosophila OR13a) | % activation (Drosophila OR47a)
COC(=O)c1ccccc1 [methyl benzoate] | 5.95% |  |  |  |  |  |  |  |  | 
C=C1[C@H]2CC[C@@H]3[C@H]2C(C)(C)CCC[C@]13C [(+)-longifolene] | 0% | 0% | 0% | 0% | 0% | 0% | 0% | 0% | 0% | 
Cc1ccc(C)cc1 [p-xylene] |  |  | 6.15% |  |  |  |  |  |  | 
OCCc1ccccc1 [phenethyl alcohol] | 5.7% | 8.62% |  |  | 5.64% | 6.44% |  |  |  | 
C=C1CC[C@@]23C[C@@H]1C(C)(C)[C@@H]2CC[C@H]3C [(+)-beta-cedrene] | 0% | 0% | 0% | 0% | 0% | 0% | 0% | 0% | 0% | 
C=C(C)C1CCC2(C)OC2C1 (single isomer, unassigned; (+)) [(+)-limonene oxide] | 0% | 0% | 0% | 0% | 0% | 0% | 0% | 0% | 0% | 
C=C(C)[C@H]1CC=C(C)CC1 [(R)-(+)-limonene] | 0% | 0% | 0% | 0% | 0% |  | 0% | 0% | 0% | 0.05286%
C=C(C)[C@H]1CC=C(C)CC1 [limonene] |  |  |  |  |  |  |  |  |  | 0%
CCCCCOC(C)=O [pentyl acetate] |  |  |  | 8.7% |  |  |  |  |  | 
COC(=O)c1ccccc1O [methyl salicylate] |  |  |  | 11.5% |  |  |  |  |  | 
